Source: patent US20140243302A1, “BRIDGED BICYCLIC COMPOUNDS FOR THE TREATMENT OF BACTERIAL INFECTIONS” (priority 2011, published 2014)
In brackets after ≈: the same amount, converted by molar mass.

Assays:
Type in all cases: cell-based
[1] = tested on: Escherichia coli ATCC 25922; test: MIC assay, modified agar dilution (CLSI), E. coli ATCC 25922
Procedure: (§1) The potency of antibacterial agents was measured using the Minimal Inhibitory Concentration (MIC) assay. The assay measures the ability of test agents to inhibit the growth of bacteria on agar-containing medium.
(§2) The bacterial test strains used were exemplified by Staphylococcus aureus Smith, Enterococcus faecium A2373, Streptococcus pneumoniae IID554, and Escherichia coli ATCC 25922. All strains were maintained as frozen stocks held at −80° C. in skim milk. Other bacterial test strains are well known to those skilled in the art and can be used for testing.
(§3) Mueller Hinton Agar (MHA BBL; Becton Dickinson and Company, Sparks, Md.) was used as the medium. MHA was supplemented with 5% defibrinated horse blood (DHB; Nippon Biotest Laboratories inc.) to support the growth of S. pneumoniae and E. faecium.
(§4) MIC values were determined using a modified agar dilution procedure described by the Clinical and Laboratory Standards Institute (CLSI; Methods for Dilution Antimicrobial Susceptibility Tests for Bacteria That Grow Aerobically; Approved Standard—Eighth Edition. CLSI document M07-A8 [ISBN 1-56238-689-1]. Clinical and Laboratory Standards Institute, 940 West Valley Road, Suite 1400, Wayne, Pa. 19087-1898 USA, 2009).
(§5) Stock solutions (6.4 mgmL) of test compounds were prepared in 100% ultrapure dimethyl sulfoxide (DMSO; source) on the day of the assay. […]

[2] = tested on: Staphylococcus aureus Smith; test: MIC assay, modified agar dilution (CLSI), S. aureus Smith; settings: for MIC: Staphylococcus aureus, agar dilution, 35° C., 16-20 hr, lowest concentration that completely inhibited growth, read-out: S_aureus_Smith_WT_MIC; for susceptibility of S. aureus Smith based on MIC interpretive standards defined by CLSI: reference antibiotics
Method in brief: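 Strains were spotted at about 1×10^4 CFU onto compound-containing Mueller Hinton agar (two-fold series, 128-0.001 μg/mL), horse blood 5% added for pneumococcus and enterococcus. MIC read after 16-20 hr at 35 °C, following a modified CLSI agar dilution method.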

[3] = tested on: Pseudomonas aeruginosa PAO1; test: MIC assay, modified agar dilution (CLSI), P. aeruginosa PAO1
Procedure: as §1, §3, §4
(§6) Stock solutions (6.4 mgmL) of test compounds were prepared in 100% ultrapure dimethyl sulfoxide (DMSO; source) on the day of the assay. Subsequent serial dilutions were performed to generate solutions with concentrations ranging from 6.4 to 0.0002 mgmL in 100% DMSO.
(§7) Agar medium containing test compound was prepared by adding the dilutions of antimicrobial solution to molten MHA at a temperature of 45-50° C. […]

[4] = tested on: Streptococcus pneumoniae IID554; test: MIC assay, modified agar dilution (CLSI), S. pneumoniae IID554; settings: for susceptibility of S. pneumoniae IID554 based on MIC interpretive standards defined by CLSI: reference antibiotics
Procedure: as §1, §2, §3, §4, §6
Agar medium containing test compound was prepared by adding the dilutions of antimicrobial solution to molten MHA at a temperature of 45-50° C. The agar and antimicrobial solution were mixed thoroughly, poured into petri dishes, and allowed to solidify at room temperature. The final concentration of test compounds in the MHA medium ranged from 128 to 0.001 μg/mL with two-fold dilutions. MHA plates lacking antibacterial compound were used for growth controls.
Prior to susceptibility testing, the bacterial isolates were removed from frozen storage, thawed at room temperature, sub-cultured to MHA medium and incubated overnight at 35° C. S. pneumoniae and E. faecium were subcultured on MHA supplemented with 5% DHB at 35° C. with […]. Colonies from each plate were suspended in normal saline. This suspension was adjusted to the turbidity of a 0.5 McFarland standard, 1-2×10^8 colony forming units (CFU) per mL, and diluted 100-fold to 1-2×10^6 CFUmL.
Suspensions of bacterial cultures were applied to the surface of MHA plates containing test compound as well as to a growth control plate lacking test compound using an inoculum-replicating device with 4 mm pins. The replicating device applied 5 uL of the bacterial suspension such that each spot contained approx. 1×10^4 CFU. […]

A_bau_IID876 = test: MIC assay, modified agar dilution (CLSI), A_bau_IID876
Procedure: as §1, §3, §4, §6, §7

[5] = tested on: Enterococcus faecium A2373; test: MIC assay, modified agar dilution (CLSI), E. faecium A2373; settings: reference antibiotics
Procedure: as §1, §2, §3, §4, §5

Structure (SMILES)	MIC [2] [µg/mL]	also measured
N#Cc1ccc2c(c1)N(CCC13CCC(NCc4ccc5c(n4)NC(=O)CO5)(CC1)CO3)C(=O)CO2 [Example 202, 1-(2-(6-Cyano-3-oxo-2H-benzo[b][1,4]oxazin-4(3H)-yl)ethyl)-N-((3-oxo-3,4-dihydro-2H-pyrido[3,2-b][1,4]oxazin-6-yl)methyl)-2-oxabicyclo[2.2.2]octan-4-aminium chloride]	0.25	
O=C1COc2ccc(CNC34CCC(CCN5C(=O)COc6ccc(Br)cc65)(CC3)OC4)nc2N1 [Example 203, 1-(2-(6-Bromo-3-oxo-2H-benzo[b][1,4]oxazin-4(3H)-yl)ethyl)-N-((3-oxo-3,4-dihydro-2H-pyrido[3,2-b][1,4]oxazin-6-yl)methyl)-2-oxabicyclo[2.2.2]octan-4-aminium chloride]	0.25	
COc1ccc2ncc(F)c(C[C@H](O)C34CCC(NCc5ccc6c(c5)NC(=O)CS6(=O)=O)(CC3)CO4)c2n1 [Example 205, (S)—N-((1,1-Dioxido-3-oxo-3,4-dihydro-2H-benzo[b][1,4]thiazin-6-yl)methyl)-1-(2-(3-fluoro-6-methoxy-1,5-naphthyridin-4-yl)-1-hydroxyethyl)-2-oxabicyclo[2.2.2]octan-4-aminium chloride]	2	
COc1ccc2ncc(F)c(C[C@H](O)C34CCC(NCc5ccc6c(n5)NCCO6)(CC3)CO4)c2n1 [Example 206, (S)-6-(((1-(2-(3-Fluoro-6-methoxy-1,5-naphthyridin-4-yl)-1-hydroxyethyl)-2-oxabicyclo[2.2.2]octan-4-yl)ammonio)methyl)-3,4-dihydro-2H-pyrido[3,2-b][1,4]oxazin-4-ium chloride]	0.06	
COc1ccc2ncc(F)c(CCC34CCC(NCc5ccc6c(n5)OCCN6)(CC3)CO4)c2n1 [Example 207, 6-(((1-(2-(3-Fluoro-6-methoxy-1,5-naphthyridin-4-yl)ethyl)-2-oxabicyclo[2.2.2]octan-4-yl)ammonio)methyl)-2,3-dihydro-1H-pyrido[2,3-b][1,4]oxazin-1-ium chloride]	0.5	
CC(O)(CC12CCC(NCc3ccc4c(n3)NC(=O)CO4)(CC1)CO2)c1c(F)cnc2ccc(OCCO)nc12 (centres unmarked) [Example 209, 1-(2-(3-Fluoro-6-(2-hydroxyethoxy)-1,5-naphthyridin-4-yl)-2-hydroxypropyl)-N-((3-oxo-3,4-dihydro-2H-pyrido[3,2-b][1,4]oxazin-6-yl)methyl)-2-oxabicyclo[2.2.2]octan-4-aminium chloride]	8	
O=C1COc2ccc(CNC34CCC(CC(O)c5c(F)cnc6ccc(OCCCO)nc56)(CC3)OC4)nc2N1 (centres unmarked) [Example 210, 1-(2-(3-Fluoro-6-(3-hydroxypropoxy)-1,5-naphthyridin-4-yl)-2-hydroxyethyl)-N-((3-oxo-3,4-dihydro-2H-pyrido[3,2-b][1,4]oxazin-6-yl)methyl)-2-oxabicyclo[2.2.2]octan-4-aminium chloride]	0.25	
CC(=O)NC[C@H]1CN(c2ccc(N3CCOCC3)c(F)c2)C(=O)O1 [linezolid, reference compound]		susceptibility of S. aureus Smith based on MIC interpretive standards defined by CLSI [2]: susceptible; susceptibility of S. pneumoniae IID554 based on MIC interpretive standards defined by CLSI [4]: susceptible; susceptibility of E. faecium A2373 [5]: susceptible
CN[C@H](CC(C)C)C(=O)N[C@H]1C(=O)N[C@@H](CC(N)=O)C(=O)N[C@H]2C(=O)N[C@H]3C(=O)N[C@H](C(=O)N[C@H](C(=O)O)c4cc(O)cc(O)c4-c4cc3ccc4O)[C@H](O)c3ccc(c(Cl)c3)Oc3cc2cc(c3O[C@@H]2O[C@H](CO)[C@@H](O)[C@H](O)[C@H]2O[C@H]2C[C@](C)(N)[C@H](O)[C@H](C)O2)Oc2ccc(cc2Cl)[C@H]1O [vancomycin, reference compound]		susceptibility of S. aureus Smith based on MIC interpretive standards defined by CLSI [2]: susceptible; susceptibility of S. pneumoniae IID554 based on MIC interpretive standards defined by CLSI [4]: susceptible; susceptibility of E. faecium A2373 [5]: resistant

Now from value to compound, other results behind:

MIC [2] [µg/mL]	Structure (SMILES)	also measured
0.063	COc1ccc2ncc(F)c(CC(O)C34CCC(NCc5ccc6c(n5)NC(=O)CO6)(CC3)CO4)c2n1.Cl (single isomer, unassigned) [Example 20a, 6-((1-(2-(3-Fluoro-6-methoxy-1,5-naphthyridin-4-yl)-1-hydroxyethyl)-2-oxabicyclo[2.2.2]octan-4-ylamino)methyl)-2H-pyrido[3,2-b][1,4]oxazin-3(4H)-one Hydrochloride]	E_coli_ATCC25922_WT_MIC [1]: 4.00 µg/mL; P_ae_PAO1_WT_MIC [3]: 16.0 µg/mL; Strep_Pn_IID554_WT_MIC ([4]; agar dilution, MHA with 5% defibrinated horse blood): 0.250 µg/mL; A_bau_IID876_WT_MIC (A_bau_IID876): 1.00 µg/mL
0.25	C=Cc1c(CNC23CCC(CCc4c(F)cnc5ccc(OC)nc45)(CC2)OC3)nc2c(c1C)OCC(=O)N2.Cl [Example 199, 1-(2-(3-Fluoro-6-methoxy-1,5-naphthyridin-4-yl)ethyl)-N-((8-methyl-3-oxo-7-vinyl-3,4-dihydro-2H-pyrido[3,2-b][1,4]oxazin-6-yl)methyl)-2-oxabicyclo[2.2.2]octan-4-aminium chloride]	
0.06	COc1ccc2ncc(F)c(C[C@H](O)C34CCC(NCc5ccc6c(c5)NC(=O)CS6)(CC3)CO4)c2n1.Cl [Example 204, (S)-1-(2-(3-Fluoro-6-methoxy-1,5-naphthyridin-4-yl)-1-hydroxyethyl)-N-((3-oxo-3,4-dihydro-2H-benzo[b][1,4]thiazin-6-yl)methyl)-2-oxabicyclo[2.2.2]octan-4-aminium chloride]	
0.06 (≈ 0.114 µM)	COc1ccc2ncc(F)c(C(O)CC34CCC(NCc5ccc6c(n5)NC(=O)CO6)(CC3)CS4)c2n1 (centres unmarked) [Example 208, 6-(((1-(2-(3-Fluoro-6-methoxy-1,5-naphthyridin-4-yl)-2-hydroxyethyl)-2-thiabicyclo[2.2.2]octan-4-yl)amino)methyl)-2H-pyrido[3,2-b][1,4]oxazin-3(4H)-one]	
16	Cl.O=C1COc2ccc(CNC34CCC(CCn5c(=O)ccc6ncc(OCC7CC7C(=O)O)cc65)(CC3)OC4)nc2N1 (centres unmarked) [Example 283, 2-((6-Oxo-5-(2-(4-((3-oxo-3,4-dihydro-2H-pyrido[3,2-b][1,4]oxazin-6-yl)methylamino)-2-oxabicyclo[2.2.2]octan-1-yl)ethyl)-5,6-dihydro-1,5-naphthyridin-3-yloxy)methyl)cyclopropanecarboxylic Acid Hydrochloride]	
0.125 (≈ 0.232 µM)	COc1ccc2ncc(F)c(CCC34CCC(NCc5cc6c(F)ccc(F)c6nc5OC)(CC3)CO4)c2n1 [Example 288, N-((5,8-Difluoro-2-methoxyquinolin-3-yl)methyl)-1-(2-(3-fluoro-6-methoxy-1,5-naphthyridin-4-yl)ethyl)-2-oxabicyclo[2.2.2]octan-4-amine]	
0.125 (≈ 0.228 µM)	O=C1COc2ccc(CNC34CCC(CCc5c(F)cnc6ccc(N7CCOC7=O)nc56)(CC3)OC4)nc2N1 [Example 292, 6-((1-(2-(3-Fluoro-6-(2-oxooxazolidin-3-yl)-1,5-naphthyridin-4-yl)ethyl)-2-oxabicyclo[2.2.2]octan-4-ylamino)methyl)-2H-pyrido[3,2-b][1,4]oxazin-3(4H)-one]	
0.5 (≈ 0.889 µM)	O=C1COc2ccc(CNC34CCC(CCc5c(F)cnc6ccc(N7CCC(O)CC7)nc56)(CC3)OC4)nc2N1 [Example 293, 6-((1-(2-(3-Fluoro-6-(4-hydroxypiperidin-1-yl)-1,5-naphthyridin-4-yl)ethyl)-2-oxabicyclo[2.2.2]octan-4-ylamino)methyl)-2H-pyrido[3,2-b][1,4]oxazin-3(4H)-one]	
0.125 (≈ 0.228 µM)	O=C1COc2ccc(CNC34CCC(CCc5c(F)cnc6ccc(N7CC[C@H](O)C7)nc56)(CC3)OC4)nc2N1 [Example 294, (S)-6-((1-(2-(3-Fluoro-6-(3-hydroxypyrrolidin-1-yl)-1,5-naphthyridin-4-yl)ethyl)-2-oxabicyclo[2.2.2]octan-4-ylamino)methyl)-2H-pyrido[3,2-b][1,4]oxazin-3(4H)-one]	
